From patent publication US20100292184A1, “17BETA-CYANO-19-ANDROST-4-ENE DERIVATIVE, ITS USE AND MEDICAMENTS COMPRISING THE DERIVATIVE” (BAYER SCHERING PHARMA AG, priority 2007, published 2010)
pIC50: −log10 of the molar value. Where two headings read alike, the source gives them in different places.

How the values were obtained:
[1] = biological target: T1, mineralcorticoid receptor (Homo sapiens, UniProt P08235); test: MR antagonism luciferase reporter cell line assay; type: cell-based
T1 sequence (P08235 1-984): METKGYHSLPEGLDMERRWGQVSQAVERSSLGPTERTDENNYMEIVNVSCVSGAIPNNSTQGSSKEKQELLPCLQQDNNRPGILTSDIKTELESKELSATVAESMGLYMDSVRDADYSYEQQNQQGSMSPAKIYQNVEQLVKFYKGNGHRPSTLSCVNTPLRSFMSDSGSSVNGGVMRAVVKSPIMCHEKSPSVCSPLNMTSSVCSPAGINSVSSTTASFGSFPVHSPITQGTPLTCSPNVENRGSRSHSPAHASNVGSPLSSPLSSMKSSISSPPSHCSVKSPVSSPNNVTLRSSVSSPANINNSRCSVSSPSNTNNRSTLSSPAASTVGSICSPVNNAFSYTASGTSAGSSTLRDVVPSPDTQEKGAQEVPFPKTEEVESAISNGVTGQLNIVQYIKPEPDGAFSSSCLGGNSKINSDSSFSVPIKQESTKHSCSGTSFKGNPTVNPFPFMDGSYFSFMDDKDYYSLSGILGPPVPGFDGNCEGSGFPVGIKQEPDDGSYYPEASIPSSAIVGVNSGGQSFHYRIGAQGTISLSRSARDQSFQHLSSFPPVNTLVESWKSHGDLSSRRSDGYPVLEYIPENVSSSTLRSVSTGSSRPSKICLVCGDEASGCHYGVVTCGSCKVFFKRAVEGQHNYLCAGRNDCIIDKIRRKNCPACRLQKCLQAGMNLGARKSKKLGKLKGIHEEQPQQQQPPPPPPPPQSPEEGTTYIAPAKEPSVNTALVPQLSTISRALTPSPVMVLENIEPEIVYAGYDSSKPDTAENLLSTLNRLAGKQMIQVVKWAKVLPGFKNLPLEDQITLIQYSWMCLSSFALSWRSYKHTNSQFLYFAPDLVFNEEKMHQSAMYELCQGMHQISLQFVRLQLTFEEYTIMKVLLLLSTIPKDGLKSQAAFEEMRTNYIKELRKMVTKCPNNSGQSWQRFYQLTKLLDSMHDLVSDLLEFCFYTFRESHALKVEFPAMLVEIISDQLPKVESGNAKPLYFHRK
Procedure: The derivatives according to the invention having the general chemical formula have a very strong gestagenic activity. […] They should therefore have in vivo potassium-retaining, natriuretic (antimeralcorticoid) action. These properties were determined using the test described below:
For the culturing of the cells used for the assay, the culture medium used was DMEM (Dulbecco's Modified Eagle Medium: […] of glucose; PAA, #E15-009) with 10% FCS (Biochrom, S0115, batch #615B), 4 mM L-glutamine, 1% penicillin/streptomycin, 1 mg/ml of G418 and 0.5 μg/ml of puromycin.
Reporter cell lines were grown in a density of 4×10^4 cells per hollow in white, nontransparent tissue culture plates in each case having 96 hollows (PerkinElmer, #P12-106-017) and kept in 6% DCC-FCS (activated carbon-treated serum, for the removal of interfering components contained in the serum). The compounds to be investigated were added eight days later, and the cells were incubated with the compounds for 16 hours. The experiments were carried out in triplicate. At the end of the incubation, the effector-containing medium was removed and replaced by lysis buffer. After luciferase assay substrate (promega, #E1501) had been added, the plates containing the 96 hollows were then introduced into a microplate luminometer (Pherastar, BMG labtech), and the luminescence was measured. The […] values were evaluated using software for the calculation of dose-activity relationships.

PR = biological target: T2, PR (Rattus norvegicus, UniProt Q63449); test: maintenance of pregnancy test on the rat; type: in vivo; details: ovarectomized pregnant rats; for PR in vivo ED50 (pregnancy-maintaining dose): s.c. once daily from day 8 to day 15 or 21, with oestrone 5 μg/kg/day
T2 construct: from tissue; host or cells: whole animal: pregnant, ovariectomized rats
T2 sequence (Q63449 1-923): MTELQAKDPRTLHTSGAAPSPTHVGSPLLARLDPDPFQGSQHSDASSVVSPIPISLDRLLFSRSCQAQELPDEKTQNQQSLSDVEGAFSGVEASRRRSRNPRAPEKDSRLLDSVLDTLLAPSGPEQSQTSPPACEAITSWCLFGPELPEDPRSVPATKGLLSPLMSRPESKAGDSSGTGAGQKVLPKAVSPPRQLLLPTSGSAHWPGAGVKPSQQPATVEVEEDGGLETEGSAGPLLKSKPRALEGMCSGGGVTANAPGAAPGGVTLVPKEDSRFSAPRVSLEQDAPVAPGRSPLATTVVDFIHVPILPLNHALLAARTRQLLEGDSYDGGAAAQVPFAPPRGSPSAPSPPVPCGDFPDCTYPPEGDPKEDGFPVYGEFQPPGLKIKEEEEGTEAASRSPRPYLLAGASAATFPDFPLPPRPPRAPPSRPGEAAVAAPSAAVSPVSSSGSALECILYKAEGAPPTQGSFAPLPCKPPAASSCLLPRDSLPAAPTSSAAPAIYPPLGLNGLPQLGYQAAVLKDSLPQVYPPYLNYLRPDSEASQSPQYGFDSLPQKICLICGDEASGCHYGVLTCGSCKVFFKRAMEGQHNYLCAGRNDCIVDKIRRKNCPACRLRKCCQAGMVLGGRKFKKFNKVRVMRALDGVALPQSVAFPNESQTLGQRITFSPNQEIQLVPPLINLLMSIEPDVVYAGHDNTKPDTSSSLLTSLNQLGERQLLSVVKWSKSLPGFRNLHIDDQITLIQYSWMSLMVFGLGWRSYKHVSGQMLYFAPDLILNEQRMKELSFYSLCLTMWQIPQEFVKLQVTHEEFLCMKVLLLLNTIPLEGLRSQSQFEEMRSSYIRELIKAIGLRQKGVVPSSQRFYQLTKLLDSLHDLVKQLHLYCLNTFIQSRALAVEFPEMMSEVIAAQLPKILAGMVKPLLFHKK
Description: Carrying out the maintenance of pregnancy test on the rat:
In pregnant rats, the removal of the corpora lutea or oophorectomy induces an abortion. By means of the exogenous administration of progestins (gestagens) in combination with a suitable dose of an oestrogen, the maintenance of pregnancy is possible. The maintenance of pregnancy test on ovarectomized rats serves for the determination of the peripheral gestagenic activity of a compound.
Rats were paired overnight during proestrus. Pairing was checked on the morning of the following day by the appraisal of a vaginal smear. The presence of the sperm was evaluated here as day 1 of a commencing pregnancy. On day 8 of the pregnancy, the animals were ovarectomized under ether anaesthesia. The treatment with test compound and exogenous oestrogen (oestrone, 5 μg/kg/day) was carried out subcutaneously once daily from day 8 to day 15 or day 21 of the pregnancy. The first administration on day 8 was carried out two hours before oophorectomy. Intact control animals were given exclusively vehicle.
At the end of the experiment (day 15 or day 21), the animals were sacrificed under a CO2 atmosphere, and live foetuses (foetuses having a beating heart) and implantation sites (early resorptions and dead foetuses including autolysis and atrophic placentas) were counted in both uterine horns. On day 22, it was moreover possible to examine foetuses for malformations. In uteri without foetuses or implantation sites, the number of nidation sites was determined by staining with 10% strength ammonium sulphide solution. The maintenance of pregnancy rate was calculated as the quotient of the number of living foetuses and the total number of nidation sites (both resorbed and dead foetuses and nidation sites). For drospirenone, this value is 3.5 mg/kg/day.

[2] = reporter cell lines, 16 hours incubation, luciferase luminescence
[3] = reporter cell lines, 16 hours incubation, luciferase luminescence, read-out: MR Antagonism IC50

pregnancy-maintaining dose (ED50) (PR; subcutaneous, with oestrone 5 μg/kg/day) [mg/kg/day] | SMILES | pIC50 [1] | MR Antagonism activity [% of the maximum effect] [1, 2] | PR in vivo ED50 (pregnancy-maintaining dose) (PR) [mg/kg/d s.c.] | pIC50 [1, 3]
– | C[C@]12CC[C@H]3[C@@H](CC4(CC4)C4=CC(=O)CC[C@@]43C)[C@@H]1CC[C@@H]2C#N | 7.70 | 99.16 % of the maximum effect | 25.0 | –
– | C[C@]12CCC(=O)C=C1CC[C@H]1[C@@H]3[C@@H]4C[C@@H]4[C@](C)(C#N)[C@@]3(C)CC[C@@H]12 [17β-Cyano-17α-methyl-15β,16β-methyleneandrost-4-en-3-one] | – | 98.30 % of the maximum effect | 10.0 | 7.38
3.5 | C[C@]12CCC(=O)C=C1[C@@H]1C[C@@H]1[C@H]1[C@@H]3[C@@H]4C[C@@H]4[C@@]4(CCC(=O)O4)[C@@]3(C)CC[C@@H]12 [drospirenone, 6β,7β-15β,16β-dimethylene-3-oxo-17-pregn-4-ene-21,17β-carbolactone, reference compound] | – | – | – | –
– | C[C@]12CC[C@H]3[C@@H]([C@H]4C[C@H]4C4=CC(=O)CC[C@@]43C)[C@@H]1[C@@H]1C[C@@H]1[C@@H]2C#N [6β,7β-15β,16β-Bismethylene-17β-cyanoandrost-4-en-3-one] | 8.33 | 98.06 % of the maximum effect | 7.3 | –
– | C=CC[C@]1(C#N)CC[C@H]2[C@@H]3CCC4=CC(=O)CC[C@]4(C)[C@H]3CC[C@@]21C [17α-Allyl-17β-cyanoandrost-4-en-3-one] | – | 65.30 % of the maximum effect | – | 6.00
